These results are taken from patent publication US10392389B2, “Heterocyclic compounds for the inhibition of PASK” (BioEnergenix, LLC, priority 2012, dated 2019).

In one experiment the target is T1, PASK (UniProt #Q96RG2; human recombinant N-terminal GST tagged construct, residues 879-1323) (Homo sapiens, UniProt Q96RG2).
T1 construct: N-terminal GST tagged construct, residues 879-1323; GST (N); host or cells: insect cells
The experiment can be described thus: PASK ATP Radiochemical Assay. The note with it: 33P-ATP, Myelin Basic Protein substrate, read-out: IC50 Kinase Domain. It is filed as biochemical. The method, then:
(§1) Biochemical Assay for hPASK Activity
PASK ATP Radiochemical Assay
(§2) Purified PASK (UniProt #Q96RG2; human recombinant N-terminal GST tagged construct, residues 879-1323) from insect cells (final concentration 5 nM) is added to freshly prepared Base Reaction Buffer containing 20 mM HEPES (pH 7.5), 10 mM MgCl2, 1 mM EGTA, 0.02% Brij35, 0.02 mg/ml BSA, 0.1 mM Na3VO4, 2 mM DTT, 1% DMSO and Myelin Basic Protein (20 μM final). Test compounds in DMSO are then added and the mixture, followed by delivery of ^33P-ATP (specific activity 0.01 μCi/μl final) to initiate the reaction. The kinase reaction is incubated for 120 min at room temperature. The entire reaction mixture is washed through onto a P81 Phosphocellulose paper and washed three times for 10 minutes in 75 mM phosphoric acid and once in methanol prior to drying and scintillation counting.

In the next experiment the target is T2, PASK (Invitrogen) (Homo sapiens, UniProt Q96RG2).
T2 construct: IC50 Kinase Domain; purchased Invitrogen
The experiment can be described thus: PAS Kinase FRET Assay. It is filed as biochemical. Particulars: PAS kinase TR-FRET assay (665 nm/615 nm); read-out: IC50 Kinase Domain.
Description: as §1
The aim of the FRET assay is to determine the inhibition potential of test compounds on targeted kinase. This assay platform provides a homogenous screening method for measuring kinase activity by quantitating the amount of phospho-substrate in solution following a kinase reaction.
In the presence of kinase and ATP, the Ulight-peptide is phosphorylated and captured by an anti-phospho-substrate antibody, which brings the Eu chelate donor and Ulight acceptor dyes into close proximity. Upon excitation at 340 nm, the Eu chelate transfers its energy to the Ulight dye, resulting in a fluorescent light emission at 665 nm.
Titration of kinase at 1 mM ATP was achieved via the following protocol. After making serial three-fold dilutions of PASK (Invitrogen) in reaction buffer across the plate; 5 μl of kinase dilution and 5 μl substrate/ATP mix were added to the wells of the white Optiplate-384 (PerkinElmer). The contents of the plate were and incubated at RT for 1 h. The reaction was stopped by adding 5 μl of stop solution to each test well followed by mixing and incubation at RT for 10 minutes. 5 μl of detection mix (detection antibody diluted in detection buffer) was added; the contents of the plate were mixed and then incubated in the dark for 1 hour at RT. The signal was recorded at TR-FRET mode (665 nm/615 nm). The results were graphed to calculate the EC50.
Titration of ATP at the EC50 concentration of kinase to determine ATP Km,app. was performed using the following method. After making serial dilutions of ATP (Invitrogen), 5 μl of ATP dilution and 5 μl substrate/kinase mix were added to the wells of the white Optiplate-384 (PerkinElmer). The contents of the plate were and incubated at RT for 1 h. The reaction was stopped by adding 5 μl of stop solution to each test well followed by mixing and incubation at RT for 10 minutes. 5 μl of detection mix (detection antibody diluted in detection buffer) was added; the contents of the plate were mixed and then incubated in the dark for 1 hour at RT. The signal was recorded at TR-FRET mode (665 nm/615 nm). The results were graphed to calculate the EC50 as the ATP Km,app.
Compound screening was done via the following method. 10 mM stock solution of test compound in DMSO was prepared by dissolving test compound in DMSO at RT for 1 hour, and then sonicating at 100% output for 8 minutes. If compound is not soluble under this condition, it was diluted to 3 mM. Kinase reaction buffer was prepared containing 10 mM MgCl2, 50 mM HEPES, 1 mM EGTA, 0.01% TWEEN-20, 2 mM DTT. Serial dilutions of the test compounds were prepared at 4× final assay concentrations using Freedom EVO200® dispensing system as follows: 12×10^−5 M, 4×10^−5 M, 1.33×10^−5 M, 4.44×10^−6 M, 1.48×10^−6 M, 4.92×10^−7 M, 1.65×10^−7 M, […], 1.82×10^−8M, 6.09×10^−9, 2.03×10^−9 M. Test compounds (2.5 μl at 4× the final assay concentration) was added to wells using Freedom EVO200® dispensing system. As a positive control, 2.5 μl of positive compound was added to assay wells, and 2.5 μl of DMSO to assay wells as vehicle control. Kinase solution was prepared in reaction buffer at 2× final assay concentration. Kinase solution (5 μl) was added to each well of the assay plate. The substrate and ATP solution was prepared in kinase reaction buffer at 4× final assay concentration. The kinase reaction was started by adding 2.5 μl of substrate+ATP mix solution to each well of the assay plate. The plate is mixed on a plate shaker; then covered and allowed to react for 2 hours in the dark at 25° C. without shaking. The reaction was stopped by adding 5 μl of stop solution to each test well followed by mixing and incubation at RT for 10 minutes in the dark. 5 μl of detection mix (detection antibody diluted in detection buffer) was added; the contents of the plate were mixed and then incubated in the dark for 1 hour at RT. The signal was recorded at TR-FRET mode (665 nm/615 nm).

For experiment [1], the target named is T3, CK2a2 (NP_001887; human full-length protein, GST tagged) (Homo sapiens, UniProt P19784).
T3 construct: human full-length protein, GST tagged; GST; host or cells: insect cells
The experiment can be described thus: Biochemical Assay for CK2 Activity. The note with it: 33P-ATP radiochemical assay, CK2 sub [RRRDDDSDDD]. How it is done:
Biochemical Assay for CK2 Activity
as §2, with “Purified CK2a2 (NP_001887;” for “Purified PASK (UniProt #Q96RG2;”, “human full-length protein,” for “human recombinant N-terminal”, “GST tagged)” for “GST tagged construct, residues 879-1323)”, “concentration 1.2” for “concentration 5”, “mM Hepes” for “mM HEPES”, “and CK2 sub [RRRDDDSDDD]” for “and Myelin Basic Protein”

Experiment [2] has as its target T4, PIM1 (NP_002639; human full-length protein, 6×His tagged) (Homo sapiens, UniProt P11309).
T4 construct: human full-length protein, 6×His tagged; 6xHis; host or cells: insect cells
Nature of the experiment: Biochemical Assay for PIM1 Activity. Particulars: 33P-ATP radiochemical assay, S6K/Rsk2 peptide 2 substrate. The method, then:
Biochemical Assay for PIM1 Activity
as §2, with “Purified PIM1 (NP_002639;” for “Purified PASK (UniProt #Q96RG2;”, “human full-length protein, 6×His tagged)” for “human recombinant N-terminal GST tagged construct, residues 879-1323)”, “concentration 1.0” for “concentration 5”, “mM Hepes” for “mM HEPES”, “and substrate S6K/Rsk2 peptide 2 [KKRNRTLTK]” for “and Myelin Basic Protein”, “activity 10” for “activity 0.01”

Each structure is given as a SMILES string. pIC50: −log10 of the molar value. Where only a bound is given, the exact number is not on record here.

T1 sequence (Q96RG2 879-1323, stated change not applied): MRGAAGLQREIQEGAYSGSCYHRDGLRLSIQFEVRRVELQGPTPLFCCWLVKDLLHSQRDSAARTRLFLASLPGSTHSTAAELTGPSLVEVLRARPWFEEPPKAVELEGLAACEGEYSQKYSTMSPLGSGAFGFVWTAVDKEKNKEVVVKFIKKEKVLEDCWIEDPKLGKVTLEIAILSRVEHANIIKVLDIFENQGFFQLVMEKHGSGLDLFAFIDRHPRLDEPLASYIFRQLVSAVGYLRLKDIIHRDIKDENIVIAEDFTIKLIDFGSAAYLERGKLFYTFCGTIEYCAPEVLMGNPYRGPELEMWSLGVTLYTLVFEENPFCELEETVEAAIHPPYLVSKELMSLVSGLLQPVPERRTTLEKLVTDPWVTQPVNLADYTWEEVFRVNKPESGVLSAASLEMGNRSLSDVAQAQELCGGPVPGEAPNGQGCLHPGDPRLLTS
T2 sequence (Q96RG2 999-1251 limits assumed): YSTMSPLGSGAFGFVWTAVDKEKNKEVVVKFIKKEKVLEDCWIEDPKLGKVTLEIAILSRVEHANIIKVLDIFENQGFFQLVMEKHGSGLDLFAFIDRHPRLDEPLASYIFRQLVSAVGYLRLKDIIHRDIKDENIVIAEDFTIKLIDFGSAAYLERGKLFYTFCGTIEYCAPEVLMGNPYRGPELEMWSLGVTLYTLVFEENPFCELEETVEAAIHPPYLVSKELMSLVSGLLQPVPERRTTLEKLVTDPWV
T4 sequence (P11309 whole entry): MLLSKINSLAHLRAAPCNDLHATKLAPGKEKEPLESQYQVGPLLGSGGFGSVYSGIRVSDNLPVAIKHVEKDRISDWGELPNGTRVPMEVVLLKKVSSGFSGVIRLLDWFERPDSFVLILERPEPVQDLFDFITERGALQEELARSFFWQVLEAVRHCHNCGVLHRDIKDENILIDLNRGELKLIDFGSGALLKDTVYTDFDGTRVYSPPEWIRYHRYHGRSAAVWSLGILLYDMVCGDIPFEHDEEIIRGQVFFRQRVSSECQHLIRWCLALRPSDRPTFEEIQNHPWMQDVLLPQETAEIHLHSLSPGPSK
T3 sequence (P19784 whole entry): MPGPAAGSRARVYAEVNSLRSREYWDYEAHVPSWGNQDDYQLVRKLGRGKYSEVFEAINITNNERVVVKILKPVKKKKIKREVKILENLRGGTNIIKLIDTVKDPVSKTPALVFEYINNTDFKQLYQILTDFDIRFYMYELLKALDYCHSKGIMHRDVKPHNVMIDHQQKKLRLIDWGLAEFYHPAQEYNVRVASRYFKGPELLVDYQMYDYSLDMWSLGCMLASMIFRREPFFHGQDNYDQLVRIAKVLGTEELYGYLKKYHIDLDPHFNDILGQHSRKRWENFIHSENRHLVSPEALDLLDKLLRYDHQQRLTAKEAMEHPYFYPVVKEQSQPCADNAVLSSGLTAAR

In the case of `O=c1cc(-c2ccc3c(c2)OCO3)[nH]c2c(-c3ncco3)cnn12` [Example 1, 5-(2H-1,3-benzodioxol-5-yl)-3-(1,3-oxazol-2-yl)-4H,7H-pyrazolo[1,5-a]pyrimidin-7-one], the pIC50 on PASK and at PASK (Invitrogen) was no less than 5.00 each time. For `Cc1nn2c(=O)cc(-c3ccc4c(c3)OCO4)[nH]c2c1-c1ncco1` [Example 2, 5-(2H-1,3-benzodioxol-5-yl)-2-methyl-3-(1,3-oxazol-2-yl)-4H,7H-pyrazolo[1,5-a]pyrimidin-7-one], the pIC50 (on PASK; in experiment [1]; on PASK (Invitrogen); in experiment [2]) was no less than 5.00 in each case. `CCn1ncc2cc(-c3cc(=O)n4ncc(-c5cc(C)n[nH]5)c4[nH]3)ccc21` [Example 68, 5-(1-ethyl-1H-indazol-5-yl)-3-(3-methyl-1H-pyrazol-5-yl)pyrazolo[1,5-a]pyrimidin-7(4H)-one]: the pIC50 (at PASK; in experiment [1]; in experiment [2]) was no less than 5.00 each time. With `Cc1noc2ccc(-c3cc(=O)n4ncc(-c5ncco5)c4[nH]3)cc12` [Example 110, 5-(3-methylbenzo[d]isoxazol-5-yl)-3-(oxazol-2-yl)pyrazolo[1,5-a]pyrimidin-7(4H)-one], at PASK (Invitrogen), the pIC50 is no less than 5.00.

In the case of `CCn1ncc2ccc(-c3cc(=O)n4ncc(-c5nc(C)no5)c4[nH]3)cc21` [Example 111, 5-(1-Ethyl-1H-indazol-6-yl)-3-(3-methyl-1,2,4-oxadiazol-5-yl)pyrazolo[1,5-a]pyrimidin-7(4H)-one], the pIC50 at PASK (Invitrogen) is no less than 5.00. The same measure, in the same setting: the figure for `CCn1ncc2ccc(-c3cc(=O)n4ncc(-c5ncc(C)o5)c4[nH]3)cc21` [Example 112, 5-(1-ethyl-1H-indazol-6-yl)-3-(5-methyloxazol-2-yl)pyrazolo[1,5-a]pyrimidin-7(4H)-one] is no less than 5.00; for `O=c1cc(-c2ccc(Cl)cn2)[nH]c2c(-c3ncco3)cnn12` [Example 113, 5-(5-chloropyridin-2-yl)-3-(1,3-oxazol-2-yl)-4H,7H-pyrazolo[1,5-a]pyrimidin-7-one] it is less than 5.00. For `CCc1nn2c(=O)cc(-c3ccc4c(cnn4CC)c3)[nH]c2c1-c1nc(C)no1` [Example 114, 2-ethyl-5-(1-ethyl-1H-indazol-5-yl)-3-(3-methyl-1,2,4-oxadiazol-5-yl)pyrazolo[1,5-a]pyrimidin-7(4H)-one], the negative-log IC50 (pIC50) at PASK (Invitrogen) was no less than 5.00.

Regarding `CCn1ncc2cc(-c3cc(=O)n4nc(C)c(-c5nc(C)no5)c4[nH]3)ccc21` [Example 115, 5-(1-ethyl-1H-indazol-5-yl)-2-methyl-3-(3-methyl-1,2,4-oxadiazol-5-yl)-4H,7H-pyrazolo[1,5-a]pyrimidin-7-one], the pIC50 on PASK (Invitrogen) was no less than 5.00. The same measure, in the same setting: the figure for `CCCc1nn2c(=O)cc(-c3ccc4c(cnn4CC)c3)[nH]c2c1-c1nc(C)no1` [Example 116, 5-(1-ethyl-1H-indazol-5-yl)-3-(3-methyl-1,2,4-oxadiazol-5-yl)-2-propyl-4H,7H-pyrazolo[1,5-a]pyrimidin-7-one] is no less than 5.00. For `CCc1nn2c(=O)cc(-c3ccc(Cl)c(OC)c3)[nH]c2c1-c1nc(C)no1` [Example 117, 5-(4-chloro-3-methoxyphenyl)-2-ethyl-3-(3-methyl-1,2,4-oxadiazol-5-yl)-4H,7H-pyrazolo[1,5-a]pyrimidin-7-one], the pIC50 at PASK (Invitrogen) was no less than 5.00. Consider `Cc1noc2cc(-c3cc(=O)n4ncc(-c5ncco5)c4[nH]3)ccc12` [Example 118, 5-(3-methylbenzo[d]isoxazol-6-yl)-3-(oxazol-2-yl)pyrazolo[1,5-a]pyrimidin-7(4H)-one], for which, on PASK (Invitrogen), the pIC50 was no less than 5.00. Turning to `Cc1cnc(-c2cnn3c(=O)cc(-c4ccc5c(C)noc5c4)[nH]c23)o1` [Example 119, 5-(3-Methylbenzo[d]isoxazol-6-yl)-3-(5-methyloxazol-2-yl)pyrazolo[1,5-a]pyrimidin-7(4H)-one], the pIC50 at PASK (Invitrogen) was no less than 5.00.

Take `CCc1noc2cc(-c3cc(=O)n4ncc(-c5ncco5)c4[nH]3)ccc12` [Example 120, 5-(3-Ethylbenzo[d]isoxazol-6-yl)-3-(oxazol-2-yl)pyrazolo[1,5-a]pyrimidin-7(4H)-one]: the pIC50 at PASK (Invitrogen) was no less than 5.00.

In the case of `CCc1noc2cc(-c3cc(=O)n4ncc(-c5ncc(C)o5)c4[nH]3)ccc12` [Example 121, 5-(3-ethylbenzo[d]isoxazol-6-yl)-3-(5-methyloxazol-2-yl)pyrazolo[1,5-a]pyrimidin-7(4H)-one], the pIC50 on PASK (Invitrogen) was no less than 5.00.

Consider `Cc1noc2cc(-c3cc(=O)n4ncc(C(N)=O)c4[nH]3)ccc12` [Example 122, 5-(3-methylbenzo[d]isoxazol-6-yl)-7-oxo-4,7-dihydropyrazolo[1,5-a]pyrimidine-3-carboxamide], for which, at PASK (Invitrogen), the pIC50 is no less than 5.00. In the case of `CCc1noc2cc(-c3cc(=O)n4ncc(C(N)=O)c4[nH]3)ccc12` [Example 123, 5-(3-ethylbenzo[d]isoxazol-6-yl)-7-oxo-4,7-dihydropyrazolo[1,5-a]pyrimidine-3-carboxamide], on PASK (Invitrogen), the pIC50 was no less than 5.00.
